Measurements from US20140105957A1, “BIS-(ALPHA-AMINO-DIOL-DIESTER) CONTAINING POLYESTERAMIDE FOR OPHTAMOLOGY” (DSM IP ASSETS B.V., priority 2011, published 2014).

Assay: Stability of Latanoprost in PEA III formulations and compatibility with film casting, evaluated by 1H NMR
Format: physicochemical
Experimental: For film casting, solutions were prepared in a suitable solvent resulting in solutions with viscosities low enough for solvent casting. Exact amounts of PEA-III ac Bz and API (Active Pharmaceutical Ingredient) were weighed and dissolved with a suitable solvent. The API payload is determined over the polymer weight. API payload of 10% was used. The API/polymer/solvent formulations were poured into petri dishes (4 cm diameter) and covered to reduce evaporation rates of the solvent and prevent formation of air bubbles. The solvent was evaporated for 2 days at TT in a fumehood followed by 2 days @ 750 mBar, 1 day @ 500 mBar and 2 days at full vacuum. From the resulting films, discs were cut with diameter of 10 mm and approximate thicknesses of 500 μm.
A sample was prepared by dissolving ˜10 mg of material in 1 ml of deuterated THF in a 10 ml glass vial. The sample was allowed sufficient time for complete dissolution. ^1H NMR spectra was recorded on a 300 MHz Bruker Avance 300, ARX 400 NMR instrument.
Stability of Latanoprost in formulations and compatibility with film casting procedure was evaluated by ^1H NMR.

## CC(C)OC(=O)CCC/C=C\C[C@@H]1[C@@H](CC[C@@H](O)CCc2ccccc2)[C@H](O)C[C@@H]1O [Latanoprost]
PEA III formulations with Latanoprost stored @ 4° C. for 3 months
  Stability of Latanoprost (degradation of API) by 1H NMR: did not indicate any degradation
Initial PEA III formulations with Latanoprost, after film casting
  Stability of Latanoprost (degradation of API) by 1H NMR: did not indicate any degradation
